Measurements taken from patent US9908843B2, “Benzamide derivatives useful in the treatment of muscular disorders and pain and for controlling spasticity and tremors” (Canbex Therapeutics Limited, priority 2013, dated 2018).
Where two headings read alike, the source gives them in different places.

Key:
[1] = system: mouse vas deferens; assay: Inhibition of electrically-evoked contractions of the mouse isolated vas deferens; format: cell-based; conditions: for potency (EC50) greater than VSN-16R: vas deferens mouse assay, relative to VSN-16R
Description: Compounds were evaluated using a mouse vas deferens preparation [Ward S, Mastriani D, Casiano F and Arnold R (1990) J Pharmacol Exp Ther 255:1230-1239]. The mouse vas deferens isolated tissue preparation is used as an in vitro bioassay to assess the actions of compounds on neurotransmission. Electrically-evoked contractions are induced in the preparation and compounds which affect neurotransmission will inhibit these contractions in a concentration related manner. […] CB1 agonists inhibit electrically-evoked contractions.
Vasa deferentia were obtained from albino MF1 mice weighing 31-59 g. The tissues were mounted vertically in 4 ml organ baths. They were then subjected to electrical stimulation of progressively greater intensity, followed by an equilibration procedure in which they were exposed to alternate periods of stimulation (2 min) and rest (10 min) until contractions with consistent amplitudes were obtained. These contractions were monophasic and isometric, and were evoked by 0.5 s trains of pulses of 110% maximal voltage (train frequency 0.1 Hz; pulse frequency 5 Hz; pulse duration 0.5 ms).
All drug additions were made to the organ baths after the equilibration period and there was no washout between these additions. Potential antagonist or its vehicle were added to the preparation. This was followed 28 min later by a 2-min period of electrical stimulation, at the end of which the lowest of a series of concentrations of the twitch inhibitors was applied. After a period of rest, the tissues were electrically stimulated for 2 min and then subjected to a further addition of twitch inhibitor. This cycle of drug addition, rest and 2 min stimulation was repeated so as to construct cumulative concentration—response curves. Only one concentration—response curve was constructed per tissue.
Values for EC50, maximal effect (Emax) and the s.e.m. or 95% confidence limits of these values have been calculated by nonlinear regression analysis using the equation for a sigmoid concentration—response curve (GraphPad Prism).

[2] = system: mouse vas deferens (CB2 knock-out); assay: VSN-16R dose response curve in mouse vas deferens, CB2 knock-out; format: cell-based
[3] = system: mouse vas deferens (CB1 knock-out); assay: VSN-16R dose response curve in mouse vas deferens, CB1 knock-out; format: cell-based
[4] = system: spasticity in CREAE mice; conditions: cited from earlier work
[5] = Mus musculus, Table 2, read-out: EC50
[6] = Mus musculus, Table 2, read-out: Emax (%)

SMILES | EC50 [1, 5] [nM] | Emax [1, 6] [%] | also measured
COC(=O)[C@H](CO)NC(=O)c1cccc(/C=C\CCCC(=O)N(C)C)c1 [[25], (S,Z)-methyl 2-(3-(6-(dimethylamino)-6-oxohex-1-en-1-yl)benzamido)-3-hydroxypropanoate] | 0.359 | 52.9 | –
COC(=O)CNC(=O)c1cccc(/C=C\CCCC(=O)N(C)C)c1 [[23], (Z)-methyl 2-(3-(6-(dimethylamino)-6-oxohex-1-en-1-yl)benzamido)acetate] | 0.0225 | 59.2 | –
CN(C)C(=O)CCC/C=C\c1cccc(C(=O)N[C@@H](CO)C(=O)O)c1 [[18], (S,Z)-2-(3-(6-(dimethylamino)-6-oxohex-1-en-1-yl)benzamido)-3-hydroxypropanoic acid] | 0.382 | 62.7 | –
COC(=O)CNC(=O)c1cccc(C#CCCCC(=O)N(C)C)c1 [[22], methyl 2-(3-(6-(dimethylamino)-6-oxohex-1-yn-1-yl)benzamido)acetate] | 0.112 | 52.9 | –
CN(C)C(=O)CCC/C=C\c1cccc(C(=O)N[C@@H](Cc2ccccc2)C(=O)O)c1 [[17], (S,Z)-2-(3-(6-(dimethylamino)-6-oxohex-1-en-1-yl)benzamido)-3-phenylpropanoic acid] | 0.14 | 56.3 | –
COC(=O)[C@@H](C)NC(=O)c1cccc(C#CCCCC(=O)N2CCCC2)c1 [[20], (R)-methyl 2-(3-(6-oxo-6-(pyrrolidin-1-yl)hex-1-yn-1-yl)benzamido)propanoate] | 0.466 | 44.7 | –
COC(=O)[C@@H](C)NC(=O)c1cccc(/C=C\CCCC(=O)N2CCCC2)c1 [[21], (R,Z)-methyl 2-(3-(6-oxo-6-(pyrrolidin-1-yl)hex-1-en-1-yl)benzamido)propanoate] | 0.162 | 58.3 | –
COC(=O)[C@H](CO)NC(=O)c1cccc(C#CCCCC(=O)N(C)C)c1 [[24], (S)-methyl 2-(3-(6-(dimethylamino)-6-oxohex-1-yn-1-yl)benzamido)-3-hydroxypropanoate] | 0.412 | 51.5 | –
CN(C)C(=O)CCC/C=C\c1cccc(C(=O)N[C@H](Cc2ccccc2)C(=O)O)c1 [[16], (R,Z)-2-(3-(6-(dimethylamino)-6-oxohex-1-en-1-yl)benzamido)-3-phenylpropanoic acid] | 0.00604 | 73.9 | –
C[C@@H](NC(=O)c1cccc(/C=C\CCCC(=O)N(C)C)c1)C(=O)O [[1], (Z)-(3-(6-(dimethylamino)-6-oxohex-1-en-1-yl)benzoyl)-D-alanine] | 0.00655 | 64 | EC50 ([1]; Mus musculus, Table 1, read-out: EC50): 1.42 nM; EC50 ([1]; Mus musculus, Table 1, read-out: pEC50 ± SEM (converted)): 1.41 nM; Emax ([1]; Mus musculus, Table 1, inhibition of electrically-evoked twitch response, read-out: Emax (%) ± 95% confidence limits): 46%; potency (EC50) greater than VSN-16R [1]: 10 fold; potency (EC50) greater than VSN-16R ([1]; listed as VSN44): ten-fold greater; potency (EC50) greater than VSN-16R ([1]; listed as VSN-44): ≥ 10 fold
COC(=O)[C@@H](CO)NC(=O)c1cccc(/C=C\CCCC(=O)N(C)C)c1 [[29], (R,Z)-methyl 2-(3-(6-(dimethylamino)-6-oxohex-1-en-1-yl)benzamido)-3-hydroxypropanoate] | 0.0456 | 62 | –
CN(C)C(=O)CCC/C=C\c1cccc(C(=O)NCC(=O)O)c1 [[15], (Z)-2-(3-(6-(dimethylamino)-6-oxohex-1-en-1-yl)benzamido)acetic acid] | 0.102 | 53.7 | –
C[C@H](CO)NC(=O)c1cccc(/C=C\CCCC(=O)N(C)C)c1 [VSN16R, reference compound] | – | – | EC50 [2]: 17.6 nM; EC50 [3]: 12.7 nM; Emax ([1]; Mus musculus): 40.7%; EC50 ([1]; Mus musculus, Table 1): 10.4 nM; EC50 ([1]; Mus musculus, Table 2): 0.722 nM; Emax ([1]; Mus musculus, read-out: Emax (%) ± 95% confidence limits): 56%; EC50 ([1]; Mus musculus, read-out: pEC50 ± SEM, Table 1 (converted)): 10.5 nM; EC50 ([1]; Mus musculus, wild type, FIG. 3): 10.4 nM
CC(CO)NC(=O)c1cccc(/C=C\CCCC(=O)N(C)C)c1 (stereo not shown) [VSN16] | – | – | effect on spasticity [4]: marked effect on spasticity
COC(=O)[C@@H](Cc1ccccc1)NC(=O)c1cccc(C#CCCCC(=O)N(C)C)c1 [[30], (R)-methyl 2-(3-(6-(dimethylamino)-6-oxohex-1-yn-1-yl)benzamido)-3-phenylpropanoate] | 0.0614 | 46.3 | –
COC(=O)[C@H](Cc1ccccc1)NC(=O)c1cccc(/C=C\CCCC(=O)N(C)C)c1 [[27], (S,Z)-methyl 2-(3-(6-(dimethylamino)-6-oxohex-1-en-1-yl)benzamido)-3-phenylpropanoate] | 0.0908 | 55.3 | –
Cc1c(C(=O)c2cccc3ccccc23)c2cccc3c2n1[C@H](CN1CCOCC1)CO3 [WIN55212-2, reference compound] | – | – | pEC50 ± SEM ([1]; Table 1): 8.41 ± 0.237; Emax (%) ± 95% confidence limits ([1]; Table 1, inhibition of electrically-evoked twitch response): 62 (52-72) %; EC50 ([1]; Table 1, read-out: EC50): 3.86 nM
CN(C)C(=O)CCC/C=C\c1cccc(C(=O)N[C@H](CO)C(=O)O)c1 [[14], (R,Z)-2-(3-(6-(dimethylamino)-6-oxohex-1-en-1-yl)benzamido)-3-hydroxypropanoic acid] | 0.124 | 58.5 | –
COC(=O)[C@@H](Cc1ccccc1)NC(=O)c1cccc(/C=C\CCCC(=O)N(C)C)c1 [[31], (R,Z)-methyl 2-(3-(6-(dimethylamino)-6-oxohex-1-en-1-yl)benzamido)-3-phenylpropanoate] | 0.0122 | 47 | –
COC(=O)[C@H](C)NC(=O)c1cccc(C#CCCCC(=O)N(C)C)c1 [[32], (S)-methyl 2-(3-(6-(dimethylamino)-6-oxohex-1-yn-1-yl)benzamido)propanoate] | 0.0131 | 54.6 | –
